Several values for one entry are separate records, joined by “and”; a condition that tells them apart may be missing. Equal entries are not always repeated. Marks after values point to notes of the source that are not given here.
Tests used:
[1] = system: B16-BL6 melanoma cells; assay: Inhibitory effect of orally-administered HD-2 on cancer metastasis (lung); format: in vivo, mice
From the text: B16-BL6 melanoma cells or colon26-M3.1 carcinoma cells were inoculated into mice and number of metastatic tumor masses appearing in lungs was counted. […] The peak activity was observed a: 1-mg dose with very high anticancer efficacy (86%). […] This indicated oral administration of HD-2 was quite effective for treatment of established cancer.

[2] = system: B16-BL6 melanoma; assay: Neovascularization and tumor size after intradermal melanoma injection; format: in vivo, C57BL/6 mice; conditions: one milligram orally three days after tumor injection
Method: The in vivo mechanism of anticancer effect of HD-2 was studied in mice. After suspending 4×10^5 cells of B16-BL6 melanoma in 50% PBS, they were injected intradermally into 2 sites on the back of 6- to 7-week old C57BL/6 mice. Three days after the tumor injection, one milligram of HD-2 was given orally and size of inoculated melanoma and number of blood vessels at and around tumor sites were measured. Control group was treated with oral administration of PBS.

[3] = Subacute toxicity, oral administration once a day for 4 weeks; format: in vivo, Rats (Sprague Dawley strain); conditions: for ALT / ALB / AST / BUN / CHOL / CREAT / Ca / GLU / TB / TG / TP: female rats
Method: The subacute toxicity of oral administration of HD-2 was evaluated according to toxicity assessment criteria described in Article 96-8 of Notice on rood and Drug Safety (Apr. 16, 1994). Rats (Sprague Dawley . strain) were used for experiments, as was the case for acute toxicity experiments. […]
Following items were observed during the period of study. • 1) General symptoms: General symptoms, such as anorchism, salivation, diarrhea, vomiting, polyuria, anuria, and fecal change and the severity of these symptoms were evaluated once a day during the study period. • 2) Food consumption: Twice a week, the amount of consumed food and the remaining amount were checked per cage. • 3) Water consumption: Twice a week, the amount of consumed water and the remaining amount were checked per cage. • 4) Weight: Weights were measured twice a week until the end of the study. • 5) Urinalysis: Urine samples were collected during study period from 5 randomly selected rats per study subgroup and appearance, volume, and colors were recorded. Using urinalysis kits (N-multistix of Amersham), pH, gravity, leukocyte, protein, ketone body, urobilinogen, glucose and blood urea nitrogen were measured. • 6) Eye examination: Ophthalmoscopic examination of 5 randomly selected rats per study subgroup was performed to evaluate the external appearance, cornea, and:fundus of the eye. • 7) Hematological and biochemical analysis: Routine blood test was done to measure red blood cell count, white blood cell count, hemoglobin concentration, number of monocytes and lymphocytes, and blood coagulation time. Biochemical analysis of serum was done to measure the activity of […], aspartate transaminase, alkaline phosphate, and albumin. • 8) Size and weight of organs: For every animal studied, weight and size of major organs were measured relative to body weight. Measured organs included liver, kidney, spleen, heart, adrenal gland, brain, thyroid gland, ovary, and testis. • 9) Pathological examination: Organs were fixed in formalin after measurement of weight and size and fixed tissues were cut into […] slices using microtome (AO Rotate Microtome) and stained with hematoxylin and eosin for microscopic study.

O1[As]2O[As]3O[As]1O[As](O2)O3 [HD-2, arsenic hexoxide (As4O6)]
inhibitory rate ([1]; 0.1 mg oral administration +1): 38.5% | number of metastatic masses, mean ±SD ([1]; 0.1 mg oral administration +1): 75 ± 28 | inhibitory rate ([1]; 0.1 mg oral administration +7): 41.4% | number of metastatic masses, mean ±SD ([1]; 0.1 mg oral administration +7): 95 ± 23 | inhibitory rate ([1]; 1 mg oral administration +1): 86% and 86.1% | number of metastatic masses, mean ±SD ([1]; 1 mg oral administration +1): 17 ± 9 | inhibitory rate ([1]; 1 mg oral administration +7): 70% and 70.4% | number of metastatic masses, mean ±SD ([1]; 1 mg oral administration +7): 48 ± 19 | inhibitory rate ([1]; 10 mg oral administration +1): 63.1% | inhibitory rate ([1]; 10 mg oral administration +7): 66.1% | number of metastatic masses, mean ±SD ([1]; 10 mg oral administration +7): 55 ± 13 | number of metastatic masses, mean ±SD ([1]; 10 mg oral administration +1 day after inoculation): 45 ± 25 | anti-metastatic effect compared to the control group ([1]; oral administration, 0.1 to 10 mg): significant anti-metastatic effect | size of solid tumor mass [2]: decreased significantly | number of new blood vessels at and around tumor sites ([2]; FIG. 5): tended to decrease | ALT ([3]; High 100 mg/kg/day oral): 29.67 μ/l | ALB ([3]; High 3.0 g/kg/day oral): 3.33 g/dL | AST ([3]; High 3.0 g/kg/day oral): 77.87* μ/l | BUN ([3]; High 3.0 g/kg/day oral): 13.13 mg/dL | CHOL ([3]; High 3.0 g/kg/day oral): 44.33 mg/dL | CREAT ([3]; High 3.0 g/kg/day oral): 0.47 mg/dL | Ca ([3]; High 3.0 g/kg/day oral): 8.73 mg/dL | GLU ([3]; High 3.0 g/kg/day oral): 63.03 mg/dL | TB ([3]; High 3.0 g/kg/day oral): 0.18 mg/dL | TG ([3]; High 3.0 g/kg/day oral): 62.33 mg/dL | TP ([3]; High 3.0 g/kg/day oral): 5.93 g/dL | ALB ([3]; Low 0.03 g/kg/day oral): 3.60 g/dL | ALT ([3]; Low 0.03 g/kg/day oral): 27.10 μ/l | AST ([3]; Low 0.03 g/kg/day oral): 70.10* μ/l | BUN ([3]; Low 0.03 g/kg/day oral): 11.43 mg/dL | CHOL ([3]; Low 0.03 g/kg/day oral): 42.33 mg/dL | CREAT ([3]; Low 0.03 g/kg/day oral): 0.40 mg/dL | Ca ([3]; Low 0.03 g/kg/day oral): 8.77 mg/dL | GLU ([3]; Low 0.03 g/kg/day oral): 67.70 mg/dL | TB ([3]; Low 0.03 g/kg/day oral): 0.14 mg/dL | TG ([3]; Low 0.03 g/kg/day oral): 50.00 mg/dL | TP ([3]; Low 0.03 g/kg/day oral): 6.27 g/dL | ALB ([3]; Medium 0.3 g/kg/day oral): 3.70 g/dL | ALT ([3]; Medium 0.3 g/kg/day oral): 27.00 μ/l | AST ([3]; Medium 0.3 g/kg/day oral): 87.53 μ/l | BUN ([3]; Medium 0.3 g/kg/day oral): 13.18 mg/dL | CHOL ([3]; Medium 0.3 g/kg/day oral): 40.50 mg/dL | CREAT ([3]; Medium 0.3 g/kg/day oral): 0.53 mg/dL | Ca ([3]; Medium 0.3 g/kg/day oral): 8.95 mg/dL | GLU ([3]; Medium 0.3 g/kg/day oral): 70.00 mg/dL | TB ([3]; Medium 0.3 g/kg/day oral): 0.16 mg/dL | TG ([3]; Medium 0.3 g/kg/day oral): 56.25 mg/dL | TP ([3]; Medium 0.3 g/kg/day oral): 6.53 g/dL | kidney pathology: hemosiderin in and atrophy of proximal tubular epithelium ([3]; high-dose group (100 mg/kg body weight), 4 weeks): observed to a slight degree | kidney pathology ([3]; medium-dose group, 4 weeks): no such pathology was observed | Hematological and biochemical study vs control groups ([3]; oral, once a day for 4 weeks): did not reveal any significant difference | clinical symptoms incl. changes in weight and consumption of food and water ([3]; oral, once a day for 4 weeks): no specific clinical symptom | urinalysis and eye examination ([3]; oral, once a day for 4 weeks): any significant abnormality was not observed | fatal cases ([3]; oral, once a day for 4 weeks, 1, 10, 100 mg per kg body weight): fatal cases were not observed
